Measured values reported in patent publication US12303523B2, “Method for treating dupuytren's disease” (Dale Biotech, LLC, priority 2019, dated 2025).
Values after ≈ are worked out from the molar mass of the structure shown.

What was measured:
[1] = cited from earlier work
physchem = format: physicochemical
Protocol: Niclosamide ethanolamine salt (niclosamide) was dissolved and titrated (2-fold) in methanol to generate standard curves. The linear range of niclosamide quantification using UV spectrometry (333 nm) was established to be 0.006-0.1 mM. A suspension of niclosamide was prepared in H2O at a concentration of 32.7 mg/ml (100 mM) by vigorous vortexing. A stock solution of rhamnolipids were prepared in H2O at a concentration of 400 mg/ml and diluted appropriately prior to the addition of niclosamide in the presence or absence of 20% glycerol. Niclosamide was added to a final concentration of 10 mM. The solutions were vortexed vigorously, warmed at 37° C. for 5 minutes, vortexed vigorously, and then centrifuged at 17,000 RCF for 5 minutes to remove any large particulates. The supernatant of each sample was assayed for soluble niclosamide by diluting 1:10 to 1:100 in methanol and comparing to a niclosamide standard curve.

STAT3 = STAT3 (Homo sapiens, UniProt P40763); conditions: Ren X, et al. ACS Med Chem Lett., 2010; cited from earlier work
STAT3, sequence (P40763 whole entry, species assumed): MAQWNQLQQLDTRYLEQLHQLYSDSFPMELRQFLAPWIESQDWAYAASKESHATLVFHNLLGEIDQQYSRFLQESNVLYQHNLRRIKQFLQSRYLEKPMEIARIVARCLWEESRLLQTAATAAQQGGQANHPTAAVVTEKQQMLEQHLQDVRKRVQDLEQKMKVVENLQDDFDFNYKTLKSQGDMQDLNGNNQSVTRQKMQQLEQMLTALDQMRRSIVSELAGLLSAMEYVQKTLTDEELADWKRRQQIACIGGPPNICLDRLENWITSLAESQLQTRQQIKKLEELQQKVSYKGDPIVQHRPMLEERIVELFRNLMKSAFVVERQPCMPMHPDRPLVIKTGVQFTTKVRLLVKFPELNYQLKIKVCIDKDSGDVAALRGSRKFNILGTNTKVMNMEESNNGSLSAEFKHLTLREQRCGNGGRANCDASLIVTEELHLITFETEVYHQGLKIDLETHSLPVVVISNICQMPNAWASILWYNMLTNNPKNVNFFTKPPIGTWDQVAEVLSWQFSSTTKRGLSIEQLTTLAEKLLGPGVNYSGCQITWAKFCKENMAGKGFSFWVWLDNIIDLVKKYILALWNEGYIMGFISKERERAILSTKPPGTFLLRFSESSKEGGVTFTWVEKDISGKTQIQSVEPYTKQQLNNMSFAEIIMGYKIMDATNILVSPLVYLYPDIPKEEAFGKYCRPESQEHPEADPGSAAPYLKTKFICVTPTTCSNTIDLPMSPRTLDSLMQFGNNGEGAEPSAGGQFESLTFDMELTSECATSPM

NF-κB = conditions: in vitro experiments; cited from earlier work

| Compound | solubility in distilled water ([1]; distilled water, 20° C.) [µg/mL] | solubility at 5 min (physchem; 37 °C, water, thermodynamic from solid, Soluble Niclosamide mM, ±SD) [mM] | inhibition of activation and transcriptional function of STAT3 (STAT3) | solubility in DMSO ([1]; DMSO) | solubility in ethanol ([1]; ethanol) [µM] | solubility in organic solvents ([1]; ether, ethanol, chloroform, acetone and DMSO) | water solubility ([1]; water, 20° C.) [µg/mL] | inhibition of NF-κB transcription, DNA binding, TNF-induced IκBα phosphorylation, p65 translocation, downstream gene expression (NF-κB) | increase of solubility (physchem; 5 min) |
| --- | --- | --- | --- | --- | --- | --- | --- | --- | --- |
| O=C(Nc1ccc([N+](=O)[O-])cc1Cl)c1cc(Cl)ccc1O [Niclosamide ethanolamine, niclosamide ethanolamine] | 180 to 280 | 1.06 ± 0.053 (≈ 347 µg/mL) | – | – | – | – | – | – | – |
| O=C(Nc1ccc([N+](=O)[O-])cc1Cl)c1cc(Cl)ccc1O [Niclosamide] | – | – | potently inhibits | up to 10 mM | 22000 (≈ 7200 µg/mL) | sparingly soluble | 5 to 8 | inhibits | more than 3 fold |
